Reference: patent publication US9296704B2, “Substituted pyrimidines as protein kinase inhibitors” (CELGENE AVILOMICS RESEARCH, INC., priority 2007, dated 2016)

Key:
EGFR (WT) = target: T1, EGFR (WT) (Homo sapiens, UniProt P00533); test: Omnia continuous-read kinase assay, EGFR (WT); type: biochemical; details: read-out: EGFR inhibtion
T1 construct: purchased Invitrogen PV3872
How it was run: (§1)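 Enzyme pre-incubated 30 min at 27 °C with compound, then ATP/Y12-Sox peptide added; fluorescence (ex360/em485) read continuously 60 min in 20 mM Tris pH 7.5, 5 mM MgCl2, 0.2 mM DTT. WT: 5 nM enzyme, […]; T790M/L858R: 3 nM enzyme, […]. IC50 from initial velocities, variable-slope fit.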

EGFR (T790M/L858R) = target: T2, EGFR (T790M/L858R) (Homo sapiens, UniProt P00533, L858R/T790M); test: Omnia continuous-read kinase assay, EGFR (T790M/L858R); type: biochemical; details: read-out: EGFR (T790M/L858R) inhibiton
T2 construct: purchased BPS Bioscience 40350
T2 sequence (P00533 25-1210 T790M/L858R): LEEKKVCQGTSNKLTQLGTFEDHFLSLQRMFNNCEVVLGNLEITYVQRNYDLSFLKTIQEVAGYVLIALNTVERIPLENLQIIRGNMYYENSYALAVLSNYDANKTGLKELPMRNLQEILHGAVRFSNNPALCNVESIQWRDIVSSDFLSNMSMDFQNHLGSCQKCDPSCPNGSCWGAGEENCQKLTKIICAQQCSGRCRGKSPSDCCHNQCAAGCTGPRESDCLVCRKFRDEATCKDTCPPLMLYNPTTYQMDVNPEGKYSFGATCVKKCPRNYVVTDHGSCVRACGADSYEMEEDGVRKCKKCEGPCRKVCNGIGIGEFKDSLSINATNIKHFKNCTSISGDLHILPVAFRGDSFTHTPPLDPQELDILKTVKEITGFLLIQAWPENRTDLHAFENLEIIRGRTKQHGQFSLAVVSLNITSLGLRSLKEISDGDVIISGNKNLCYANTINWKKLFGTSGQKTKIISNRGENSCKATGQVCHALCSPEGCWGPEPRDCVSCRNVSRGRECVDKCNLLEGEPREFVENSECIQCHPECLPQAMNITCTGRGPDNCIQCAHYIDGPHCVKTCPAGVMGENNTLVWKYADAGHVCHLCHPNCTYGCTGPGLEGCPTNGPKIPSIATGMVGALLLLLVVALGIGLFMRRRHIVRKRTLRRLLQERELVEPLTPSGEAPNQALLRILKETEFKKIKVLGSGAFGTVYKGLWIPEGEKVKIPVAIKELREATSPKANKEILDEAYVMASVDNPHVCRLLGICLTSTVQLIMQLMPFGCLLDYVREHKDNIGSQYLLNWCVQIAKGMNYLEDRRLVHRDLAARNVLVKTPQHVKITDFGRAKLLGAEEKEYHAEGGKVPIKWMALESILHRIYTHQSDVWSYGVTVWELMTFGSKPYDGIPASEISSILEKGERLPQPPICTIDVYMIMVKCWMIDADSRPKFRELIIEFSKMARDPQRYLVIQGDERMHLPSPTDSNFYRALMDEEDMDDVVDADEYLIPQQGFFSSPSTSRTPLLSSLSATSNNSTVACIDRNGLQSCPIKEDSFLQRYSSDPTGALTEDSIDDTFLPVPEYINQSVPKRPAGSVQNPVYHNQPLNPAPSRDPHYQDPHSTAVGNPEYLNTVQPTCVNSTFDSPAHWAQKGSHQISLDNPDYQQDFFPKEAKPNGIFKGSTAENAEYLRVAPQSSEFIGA
How it was run: as §1

ErbB1 = ErbB1 (Homo sapiens, UniProt P00533); test: Z'-LYTE biochemical assay, ErbB1 kinase inhibition; details: for inhibition at 0.01 µM: @ 10 nM; for inhibition at 0.1 µM: @ 100 nM
Sequence of ErbB1 (P00533 25-1210): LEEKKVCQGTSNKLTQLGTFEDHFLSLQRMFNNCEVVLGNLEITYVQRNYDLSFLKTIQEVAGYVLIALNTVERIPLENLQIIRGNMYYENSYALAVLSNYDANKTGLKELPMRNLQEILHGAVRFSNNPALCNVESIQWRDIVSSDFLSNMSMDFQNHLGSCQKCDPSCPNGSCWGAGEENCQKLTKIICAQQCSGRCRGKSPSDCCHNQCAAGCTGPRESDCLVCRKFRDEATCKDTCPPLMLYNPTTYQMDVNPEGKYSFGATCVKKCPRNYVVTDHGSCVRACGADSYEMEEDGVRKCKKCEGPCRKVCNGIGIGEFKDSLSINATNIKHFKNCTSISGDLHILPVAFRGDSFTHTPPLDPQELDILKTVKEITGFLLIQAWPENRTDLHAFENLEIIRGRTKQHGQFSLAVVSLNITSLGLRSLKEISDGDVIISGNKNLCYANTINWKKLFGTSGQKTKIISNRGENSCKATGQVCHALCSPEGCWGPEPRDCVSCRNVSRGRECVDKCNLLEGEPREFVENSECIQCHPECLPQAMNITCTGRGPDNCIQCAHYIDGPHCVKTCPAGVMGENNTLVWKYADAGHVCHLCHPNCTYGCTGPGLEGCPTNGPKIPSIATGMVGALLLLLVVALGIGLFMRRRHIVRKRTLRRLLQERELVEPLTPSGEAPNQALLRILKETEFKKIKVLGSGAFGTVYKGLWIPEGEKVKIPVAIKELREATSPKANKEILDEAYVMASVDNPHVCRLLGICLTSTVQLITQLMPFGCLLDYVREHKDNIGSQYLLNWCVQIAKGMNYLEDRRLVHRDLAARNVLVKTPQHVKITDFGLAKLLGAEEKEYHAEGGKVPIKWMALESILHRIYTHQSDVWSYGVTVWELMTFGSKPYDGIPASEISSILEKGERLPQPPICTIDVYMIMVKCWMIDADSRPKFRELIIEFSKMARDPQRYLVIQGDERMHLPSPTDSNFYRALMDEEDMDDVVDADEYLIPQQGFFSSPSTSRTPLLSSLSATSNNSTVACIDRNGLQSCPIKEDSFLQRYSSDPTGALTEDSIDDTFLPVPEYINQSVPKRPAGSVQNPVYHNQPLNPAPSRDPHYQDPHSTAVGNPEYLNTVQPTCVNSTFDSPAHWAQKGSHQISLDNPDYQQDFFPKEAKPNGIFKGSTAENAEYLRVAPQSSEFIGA
Experimental: (§2) Compounds of the present invention were assayed as inhibitors of one or more of ErbB1, ErbB2, and/or ErbB4 in a manner substantially similar to the method described by Invitrogen Corp (Invitrogen Corporation, 1600 Faraday Avenue, Carlsbad, Calif., CA; http://www.invitrogen.com/downloads/Z-LYTE_Brochure—1205.pdf) using the Z′-LYTE™ biochemical assay procedure or similar biochemical assay. The Z′-LYTE™ biochemical assay employs a fluorescence-based, coupled-enzyme format and is based on the differential sensitivity of phosphorylated and non-phosphorylated peptides to proteolytic cleavage.

ErbB2 = ErbB2 (Homo sapiens, UniProt P04626); test: Z'-LYTE biochemical assay, ErbB2 kinase inhibition
Sequence of ErbB2 (P04626 23-1255): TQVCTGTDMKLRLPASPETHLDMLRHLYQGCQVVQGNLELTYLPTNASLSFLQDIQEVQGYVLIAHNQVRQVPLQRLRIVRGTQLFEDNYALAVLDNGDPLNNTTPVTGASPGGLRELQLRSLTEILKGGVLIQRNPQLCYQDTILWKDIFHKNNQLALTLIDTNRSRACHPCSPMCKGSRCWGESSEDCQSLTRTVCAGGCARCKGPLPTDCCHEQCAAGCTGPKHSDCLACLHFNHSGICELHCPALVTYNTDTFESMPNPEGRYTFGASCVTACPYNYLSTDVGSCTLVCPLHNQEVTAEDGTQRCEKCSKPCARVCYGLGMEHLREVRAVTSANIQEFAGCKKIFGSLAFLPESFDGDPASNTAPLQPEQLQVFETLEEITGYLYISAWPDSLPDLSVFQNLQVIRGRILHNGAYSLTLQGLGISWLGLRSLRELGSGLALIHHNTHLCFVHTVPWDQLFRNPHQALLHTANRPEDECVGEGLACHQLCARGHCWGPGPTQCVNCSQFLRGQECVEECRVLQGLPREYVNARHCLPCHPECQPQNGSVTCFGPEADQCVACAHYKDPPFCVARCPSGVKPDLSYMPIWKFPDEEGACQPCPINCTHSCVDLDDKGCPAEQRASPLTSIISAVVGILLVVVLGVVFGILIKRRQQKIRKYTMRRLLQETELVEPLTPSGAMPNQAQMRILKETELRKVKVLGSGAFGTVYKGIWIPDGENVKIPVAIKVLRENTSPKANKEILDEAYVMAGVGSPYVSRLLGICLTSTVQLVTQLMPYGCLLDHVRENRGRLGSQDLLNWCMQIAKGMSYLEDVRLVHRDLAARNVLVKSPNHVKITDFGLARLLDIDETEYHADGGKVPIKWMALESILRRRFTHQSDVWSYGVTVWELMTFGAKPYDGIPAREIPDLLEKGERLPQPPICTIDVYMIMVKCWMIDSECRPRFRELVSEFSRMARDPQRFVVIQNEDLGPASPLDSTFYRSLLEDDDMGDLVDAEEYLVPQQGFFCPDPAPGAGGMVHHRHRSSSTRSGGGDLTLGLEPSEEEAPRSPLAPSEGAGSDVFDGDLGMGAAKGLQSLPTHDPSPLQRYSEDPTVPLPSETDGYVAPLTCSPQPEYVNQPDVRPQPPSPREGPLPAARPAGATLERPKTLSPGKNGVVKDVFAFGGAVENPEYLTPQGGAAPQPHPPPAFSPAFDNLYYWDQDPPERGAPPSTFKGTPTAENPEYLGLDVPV
Experimental: as §2

ErbB4 = ErbB4 (Homo sapiens, UniProt Q15303); test: Z'-LYTE biochemical assay, ErbB4 kinase inhibition; details: @ 1 μM
Experimental: as §2

BTK = BTK (Homo sapiens, UniProt Q06187); test: Omnia assay for potency against BTK; type: biochemical; details: read-out: BTK Inhibition
Sequence of BTK (Q06187 whole entry): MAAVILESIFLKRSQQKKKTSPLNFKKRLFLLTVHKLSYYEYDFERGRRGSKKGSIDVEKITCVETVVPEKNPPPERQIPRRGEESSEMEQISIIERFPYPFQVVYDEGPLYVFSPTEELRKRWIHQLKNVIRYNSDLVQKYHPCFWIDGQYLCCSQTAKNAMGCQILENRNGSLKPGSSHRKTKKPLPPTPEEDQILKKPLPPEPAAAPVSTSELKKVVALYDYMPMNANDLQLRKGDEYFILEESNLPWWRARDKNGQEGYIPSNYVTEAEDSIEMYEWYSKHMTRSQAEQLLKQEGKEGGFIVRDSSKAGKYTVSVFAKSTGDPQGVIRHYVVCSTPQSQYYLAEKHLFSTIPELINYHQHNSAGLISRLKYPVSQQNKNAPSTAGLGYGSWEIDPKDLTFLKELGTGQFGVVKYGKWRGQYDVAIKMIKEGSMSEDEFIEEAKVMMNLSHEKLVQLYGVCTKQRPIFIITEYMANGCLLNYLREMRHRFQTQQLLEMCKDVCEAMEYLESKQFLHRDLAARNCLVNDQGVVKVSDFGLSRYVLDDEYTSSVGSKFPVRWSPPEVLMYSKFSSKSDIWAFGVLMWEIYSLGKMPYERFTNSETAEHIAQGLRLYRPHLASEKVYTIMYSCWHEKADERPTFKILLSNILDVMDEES
How it was run: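 BTK (5 nM) was pre-incubated 30 min at 27° C with serially diluted compounds in Tris pH 7.5/MgCl2 buffer, then started with […] and Y5-Sox peptide 10 mM (ATP KMapp ~36 mM). Fluorescence (ex360/em485) was read continuously over 60 min. IC50 came from initial velocities using a variable-slope fit.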

JAK3 = target: T3, JAK3 (Homo sapiens, UniProt P52333); test: Omnia assay for potency against JAK3; type: biochemical; details: read-out: JAK3 Inhibition
T3 sequence (P52333 1-1124): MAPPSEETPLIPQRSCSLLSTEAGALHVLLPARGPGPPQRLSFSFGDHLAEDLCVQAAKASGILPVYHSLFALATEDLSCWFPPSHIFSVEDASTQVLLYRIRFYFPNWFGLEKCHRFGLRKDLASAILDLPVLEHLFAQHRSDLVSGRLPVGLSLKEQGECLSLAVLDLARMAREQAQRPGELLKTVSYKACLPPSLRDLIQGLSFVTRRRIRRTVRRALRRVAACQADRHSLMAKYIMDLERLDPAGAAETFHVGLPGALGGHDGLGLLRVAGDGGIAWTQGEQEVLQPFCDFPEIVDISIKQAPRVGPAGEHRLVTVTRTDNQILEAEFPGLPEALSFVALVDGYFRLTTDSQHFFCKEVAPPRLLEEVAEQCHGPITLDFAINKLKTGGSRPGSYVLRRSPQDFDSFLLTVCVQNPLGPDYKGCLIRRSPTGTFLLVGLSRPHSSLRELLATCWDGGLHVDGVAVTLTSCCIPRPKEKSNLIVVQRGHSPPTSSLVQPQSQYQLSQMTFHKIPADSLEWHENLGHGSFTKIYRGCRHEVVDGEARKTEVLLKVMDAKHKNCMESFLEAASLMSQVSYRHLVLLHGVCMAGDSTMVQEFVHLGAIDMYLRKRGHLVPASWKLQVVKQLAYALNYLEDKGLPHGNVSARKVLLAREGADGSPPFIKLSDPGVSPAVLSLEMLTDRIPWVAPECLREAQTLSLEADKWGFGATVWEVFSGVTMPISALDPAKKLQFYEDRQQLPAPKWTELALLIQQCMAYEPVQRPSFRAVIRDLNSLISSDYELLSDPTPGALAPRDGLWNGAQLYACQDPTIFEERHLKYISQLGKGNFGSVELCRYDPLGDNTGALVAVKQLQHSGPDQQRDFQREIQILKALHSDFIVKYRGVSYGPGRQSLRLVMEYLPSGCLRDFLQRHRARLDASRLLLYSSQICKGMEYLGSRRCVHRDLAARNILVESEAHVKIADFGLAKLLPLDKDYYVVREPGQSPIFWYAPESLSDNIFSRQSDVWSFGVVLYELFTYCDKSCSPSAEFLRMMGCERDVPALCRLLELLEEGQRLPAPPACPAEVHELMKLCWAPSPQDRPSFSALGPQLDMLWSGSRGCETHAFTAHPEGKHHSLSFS
How it was run: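 Continuous-read Omnia kinase assay with 5 nM JAK3, 5 μM ATP (near apparent Km) and 5 μM Y12-Sox peptide in Tris pH 7.5/MgCl2 buffer; enzyme pre-incubated with compound 30 min at 27 °C. Fluorescence (ex360/em485) read over 60 min; initial velocities fitted against inhibitor concentration to give IC50.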

[1] = tested on: BTK signaling in Ramos cells; test: BTK Ramos cellular assay (PLCγ2 phosphorylation); type: cell-based; details: Homo sapiens; Ramos cells, PLCγ2 phosphorylation; read-out: BTK Inhibition
Experimental: Compounds 1-13 and (I-52) were assayed in Ramos human Burkitt lymphoma cells. Ramos cells were grown in suspension in T225 flasks, spun down, resuspended in 50 mls serum-free media and incubated for 1 hour. Compound was added to Ramos cells in serum free media to a final concentration of 1, 0.1, 0.01, or 0.001 μM. Ramos cells were incubated with compound for 1 hour, washed again and resuspended in 100 ul serum-free media. Cells were then stimulated with 1 μg of goat F(ab′)2 Anti-Human IgM and incubated on ice for 10 minutes to activate B cell receptor signaling pathways. After 10 minutes, the cells were washed once with PBS and then lysed on ice with Invitrogen Cell Extraction buffer. 16 μg total protein from lysates was loaded on gels and blots were probed for phosphorylation of the BTK substrate PLCγ2. […] Additional dose response inhibition of BTK signaling with I-13 is depicted in FIG. 9.

ITK = target: T4, ITK (Homo sapiens, UniProt Q08881); test: Omnia assay for potency against ITK; type: biochemical; details: read-out: ITK inhibition
T4 sequence (Q08881 1-620): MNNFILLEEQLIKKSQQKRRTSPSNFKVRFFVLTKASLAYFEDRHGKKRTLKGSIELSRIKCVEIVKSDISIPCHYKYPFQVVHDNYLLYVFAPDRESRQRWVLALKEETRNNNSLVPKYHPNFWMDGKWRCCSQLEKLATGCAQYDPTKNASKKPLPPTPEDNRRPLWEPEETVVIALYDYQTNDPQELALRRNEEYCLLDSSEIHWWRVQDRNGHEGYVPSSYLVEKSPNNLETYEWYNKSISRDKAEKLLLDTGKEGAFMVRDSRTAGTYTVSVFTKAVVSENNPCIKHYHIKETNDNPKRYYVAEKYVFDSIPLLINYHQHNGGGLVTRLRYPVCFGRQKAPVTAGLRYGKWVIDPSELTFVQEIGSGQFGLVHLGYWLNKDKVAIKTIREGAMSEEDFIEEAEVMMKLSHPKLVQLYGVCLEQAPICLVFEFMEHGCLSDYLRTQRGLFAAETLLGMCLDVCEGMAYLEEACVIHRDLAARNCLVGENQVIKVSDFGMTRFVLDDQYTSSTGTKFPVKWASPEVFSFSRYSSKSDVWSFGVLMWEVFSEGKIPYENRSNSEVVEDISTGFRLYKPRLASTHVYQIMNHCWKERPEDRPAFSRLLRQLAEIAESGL
Source text: The protocol below describes continuous-read kinase assays to measure inherent potency of compounds against active forms of EGFR (WT) and EGFR (T790M/L858R) enzymes. The mechanics of the assay platform are best described by the vendor (Invitrogen, Carlsbad, Calif.) on their website at the following URL: http://www.invitrogen.com/content.cfm?pageid=11338 or http://www.invitrogen.com/site/us/en/home/Products-and-Services/Applications/Drug-Discovery/Target-and-Lead-Identification-and-Validation/KinaseBiology/KB-Misc/Biochemical-Assays/Omnia-Kinase-Assays.html.
Briefly, 10× stocks of EGFR-WT (PV3872) from Invitrogen and EGFR-T790M/L858R (40350) from BPS Bioscience, San Diego, Calif., 1.13×ATP (AS001A) and appropriate Tyr-Sox conjugated peptide substrates (KCZI001) were prepared in 1× kinase reaction buffer consisting of 20 mM Tris, pH 7.5, 5 mM MgCl2, 1 mM EGTA, 5 mM β-glycerophosphate, 5% glycerol (10× stock, KB002A) and 0.2 mM DTT (DS001A). 5 μL of each enzyme were pre-incubated in a Corning (#3574) 384-well, white, non-binding surface microtiter plate (Corning, NY) for 30 min. at 27° C. with a 0.5 μL volume of 50% DMSO and serially diluted compounds prepared in 50% DMSO. Kinase reactions were started with the addition of 45 μL of the ATP/Tyr-Sox peptide substrate mix and monitored every 30-90 seconds for 60 minutes at λex360/λem485 in a Synergy^4 plate reader from BioTek (Winooski, Vt.). At the conclusion of each assay, progress curves from each well were examined for linear reaction kinetics and fit statistics (R^2, 95% confidence interval, absolute sum of squares). Initial velocity (0 minutes to ˜30 minutes) from each reaction was determined from the slope of a plot of relative fluorescence units vs time (minutes) and then plotted against inhibitor concentration to estimate IC50 from log [Inhibitor] vs Response, Variable Slope model in GraphPad Prism from GraphPad Software (San Diego, Calif.).
This example describes continuous-read kinase assays to measure inherent potency of compound against active forms of ITK enzymes as described in Example 10 above except that the modified ITK-optimized reagent conditions are: • [ITK]=10 nM, [ATP]=25 μM, [Y6-Sox]=10 μM (ATP KMapp=33 μM).

| IC50 (EGFR (WT)) [nM] | IC50 (EGFR (T790M/L858R)) [nM] | inhibition at 0.01 µM (ErbB1) [%] | inhibition at 0.1 µM (ErbB1) [%] | inhibition at 0.1 µM (ErbB2; @ 100 nM) [%] | inhibition at 1 µM (ErbB2) [%] | inhibition at 1 µM (ErbB4) [%] | IC50 (BTK) [nM] | IC50 (JAK3) [nM] | inhibition at 1 µM (ErbB1; @ 1 μM) [%] | IC50 [1] [nM] | IC50 (ITK) [nM] | SMILES |
| --- | --- | --- | --- | --- | --- | --- | --- | --- | --- | --- | --- | --- |
| ≤ 10 | ≤ 10 | 75 | 98 | 39 | 96 | 75 | 10 to 100 | ≤ 10 |  |  |  | C=CC(=O)Nc1cccc(Nc2cc(Nc3ccc(F)c(Cl)c3)ncn2)c1 [I-2, N-{3-[6-(3-chloro-4-fluorophenylamino)-pyrimidin-4-ylamino]phenyl}-2-propenamide] |
| ≤ 10 | ≤ 10 | 56 | 96 |  | 89 | 95 | 10 to 100 | ≤ 10 |  |  |  | C=CS(=O)(=O)Nc1cccc(Nc2cc(Nc3ccc(F)c(Cl)c3)ncn2)c1 [I-3, N-{3-[6-(3-chloro-4-fluorophenylamino)-pyrimidin-4-ylamino]phenyl}-ethenesulfonamide] |
| ≤ 10 | 10 to 100 | 100 |  |  | 86 | 78 | ≤ 10 | ≤ 10 |  |  |  | C=CC(=O)Nc1cccc(Nc2cc(Nc3cccc(C)c3)ncn2)c1 [I-4, N-{3-[6-(3-methylphenylamino)-pyrimidin-4-ylamino]phenyl}-2-propenamide] |
| 10 to 100 | 10 to 100 | 49 | 100 |  | 84 | 97 | 100 to 1000 | 1000 to 10000 |  |  |  | C=CC(=O)Nc1cccc(Nc2cc(Nc3ccc(OCc4cccc(F)c4)c(Cl)c3)ncn2)c1 [I-6, N-{3-[6-(3-chloro-4-(3-fluorophenyl)methoxyphenylamino)-pyrimidin-4-ylamino]phenyl}-2-propenamide] |
| ≤ 10 | 1000 to 10000 | 83 |  |  |  | 57 | ≥ 10000 | 1000 to 10000 |  |  |  | C/C=C/C(=O)Nc1cccc(Nc2cc(Nc3cccc(Br)c3)ncn2)c1 [I-8, (E)-N-(3-[6-(3-bromophenylamino)-pyrimidin-4-ylamino]-phenyl)-2-butenamide] |
| ≤ 10 | 100 to 1000 |  |  |  |  | 75 | 100 to 1000 | 100 to 1000 | 100 |  |  | C=CC(=O)Nc1cccc(Nc2cc(Oc3cccc(C(F)(F)F)c3)ncn2)c1 [I-9] |
| ≤ 10 | ≤ 10 |  |  |  | 91 | 94 | 10 to 100 | 10 to 100 |  |  |  | CN(C)C/C=C/C(=O)Nc1cccc(Nc2cc(Nc3ccc(F)c(Cl)c3)ncn2)c1 [I-18, (E)-N-{3-[6-(3-chloro-4-fluorophenylamino)-pyrimidin-4-ylamino]phenyl}-4-dimethylamino-2-butenamide] |
| ≤ 10 |  |  |  |  |  |  | ≤ 10 |  |  | 10 to 100 | ≥ 10000 | C=CC(=O)Nc1cc(Nc2cc(Oc3ccc(Oc4ccccc4)cc3)ncn2)cc(C(=O)N2CCOCC2)c1 [I-100, N-(3-(morpholine-4-carbonyl)-5-(6-(4-phenoxy)pyrimidin-4-ylamino)phenyl)acrylamide] |
